Assay results reported in patent US12162893B2 (Erasca, Inc., priority 2020, dated 2024).

Molecular target: T1, mutant G12C K-RAS (Homo sapiens, UniProt P01116, G12C)
T1 construct: made in house; host or cells: E. coli BL21
Experiment: covalent adduct formation (CAF) with mutant G12C K-RAS
Assay type: binding
Settings: for % CAF (60 min): after 60 minutes at 10 micromolar
Method: Embodiments disclosed herein are further illustrated by the following examples in Tables 1-4 and the Examples hereinbelow. The Tables indicate the compound number, structure, the observed mass spectral molecular weight peak, and covalent adduct formation (CAF) with a mutant G12C K-RAS after 60 minutes at a concentration of 10 micromolar.

## C=CC(=O)N1C[C@H](C)N(c2nc(=O)n3c4c(c(-c5cc(F)cc(Cl)c5)ccc24)OCC3)C[C@H]1C [Example 16, 7-((2S,5R)-4-acryloyl-2,5-dimethylpiperazin-1-yl)-10-(3-chloro-5-fluorophenyl)-2H-[1,4]oxazino[2,3,4-ij]quinazolin-5(3H)-one]
Table 1, Pyrimidone Core-Morpholine Unsubstituted
  % CAF (60 min): 0%

## C=CC(=O)N1C[C@H](C)N(c2nc(=O)n3c4c(c(-c5ccc(F)cc5F)c(Cl)cc24)OC[C@H]3CCCN2CCC(F)(F)C2)C[C@H]1C [Example 271, (3R)-7-((2S,5R)-4-acryloyl-2,5-dimethylpiperazin-1-yl)-9-chloro-10-(2,4-difluorophenyl)-3-(3-(3,3-difluoropyrrolidin-1-yl)propyl)-2,3-dihydro-5H-[1,4]oxazino[2,3,4-ij]quinazolin-5-one]
Table 6, 10 μM, 1 h
  % CAF @ 10 μM,1 h: 93.6%

## C=CC(=O)N1CCN(c2nc(=O)n3c4c(c(-c5c(O)cccc5F)c(Cl)cc24)OC[C@H]3CO)[C@@H](C)C1 [Example 23, (3R,10R)-7-((S)-4-acryloyl-2-methylpiperazin-1-yl)-9-chloro-10-(2-fluoro-6-hydroxyphenyl)-3-(hydroxymethyl)-2H-[1,4]oxazino[2,3,4-ij]quinazolin-5(3H)-one]
Table 2, Pyrimidone Core-Morpholine Substituted
  % CAF (60 min): 0%
